# Assay results from patent US10385047B2, “Histone demethylase inhibitors” (CELGENE QUANTICEL RESEARCH, INC., priority 2014, dated 2019).
# Columns and labels:
# JMJD2C = target: T1, JMJD2C (Homo sapiens, UniProt Q9H3R0); assay: In vitro enzyme inhibition assay for JMJD2C activity (TR-FRET); format: biochemical
# T1 construct: purchased BPS Bioscience 50105; host or cells: baculovirus expression system (insect cells)
# T1 sequence (Q9H3R0 2-372): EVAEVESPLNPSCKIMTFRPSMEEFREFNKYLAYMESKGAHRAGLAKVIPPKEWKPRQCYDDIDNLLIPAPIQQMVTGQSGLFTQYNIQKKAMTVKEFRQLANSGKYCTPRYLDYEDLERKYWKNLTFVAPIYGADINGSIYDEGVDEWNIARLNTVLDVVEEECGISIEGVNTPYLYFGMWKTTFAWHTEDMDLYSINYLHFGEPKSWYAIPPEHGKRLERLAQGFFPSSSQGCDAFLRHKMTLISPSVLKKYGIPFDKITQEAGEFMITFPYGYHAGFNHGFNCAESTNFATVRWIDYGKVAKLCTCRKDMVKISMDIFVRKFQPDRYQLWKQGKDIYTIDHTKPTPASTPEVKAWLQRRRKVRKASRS
# Experimental: This assay determines the ability of a test compound to inhibit JMJD2C demethylase activity. Baculovirus expressed JMJD2C (GenBank Accession #BC143571, AA 2-372) was purchased from BPS Bioscience (Cat#50105).
# The ability of test compounds to inhibit the activity of JMJD2C was determined in 384-well plate format under the following reaction conditions: 0.3 nM JMJD2C, 300 nM H3K9me3-biotin labeled peptide (Anaspec cat #64360), 2 μM alpha-ketoglutaric acid in assay buffer of 50 mM HEPES, pH7.3, 0.005% Brij35, 0.5 mM TCEP, 0.2 mg/ml BSA, 50 μM sodium L-ascorbate, and 2 μM ammonium iron(II) sulfate. Reaction product was determined quantitatively by TR-FRET after the addition of detection reagent Phycolink Streptavidin-allophycocyanin (Prozyme) and Europium-anti-di-methylated histone H3 lysine 9 (H3K9me2) antibody (PerkinElmer) in the presence of 5 mM EDTA in LANCE detection buffer (PerkinElmer) at a final concentration of 50 nM and 1 nM, respectively.
# The assay reaction was initiated by the following: 2 μl of the mixture of 900 nM H3K9me3-biotin labeled peptide and 6 μM alpha-ketoglutaric acid with 2 μl of 11-point serial diluted inhibitor in 3% DMSO were added to each well of the plate, followed by the addition of 2 μl of 0.9 nM JMJD2C to initiate the reaction. The reaction mixture was incubated at room temperature for 30 minutes, and terminated by the addition of 6 μl of 5 mM EDTA in LANCE detection buffer containing 100 nM Phycolink Streptavidin-allophycocyanin and 2 nM Europium-anti-H3K9me2 antibody. Plates were read by EnVisionMultilabel Reader in TR-FRET mode (excitation at 320 nm, emission at 615 nm and 665 nm) after 1 hour incubation at room temperature. A ratio was calculated (665/615) for each well and fitted to determine inhibition constant (IC50).
# JMJD3 = target: T2, JMJD3 (Homo sapiens, UniProt O15054); assay: In vitro enzyme inhibition assay for JMJD3 activity (TR-FRET); format: biochemical; settings: enzymatic assay conditions described herein
# T2 construct: purchased BPS Bioscience 50115; host or cells: baculovirus expression system (insect cells)
# Experimental: This assay determines the ability of a test compound to inhibit JMJD3 demethylase activity. Baculovirus expressed JMJD3 (GenBank Accession #NM-001080424, AA1043-end) was purchased from BPS Bioscience (Cat#50115).
# The enzymatic assay of JMJD3 activity is based upon Time Resolved-Fluorescence Resonance Energy Transfer (TR-FRET) detection. […] Reaction product was determined quantitatively by TR-FRET after the addition of detection reagent Phycolink Streptavidin-allophycocyanin (Prozyme) and Europium-anti-di-methylated histone H3 lysine 27 (H3K27me2) antibody (PerkinElmer) in the presence of 5 mM EDTA in LANCE detection buffer (PerkinElmer) at a final concentration of 50 nM and 1 nM, respectively.
# The reaction mixture was incubated at room temperature for 30 minutes, and terminated by the addition of 6 μL of 5 mM EDTA in LANCE detection buffer containing 100 nM Phycolink Streptavidin-allophycocyanin and 2 nM Europium-anti-H3K27me2 antibody. Plates were read by EnVisionMultilabel Reader in TR-FRET mode (excitation at 320 nm, emission at 615 nm and 665 nm) after 1 hour incubation at room temperature. A ratio from the readout of 665/615 was calculated for each well and fitted to determine inhibition constant (IC50).
# [1] = 0.3 nM JMJD2C, H3K9me3-biotin peptide, 2 μM alpha-ketoglutaric acid
# [2] = enzymatic assay conditions described herein
# T2 sequence (O15054 1043-1682 isoform O15054-1): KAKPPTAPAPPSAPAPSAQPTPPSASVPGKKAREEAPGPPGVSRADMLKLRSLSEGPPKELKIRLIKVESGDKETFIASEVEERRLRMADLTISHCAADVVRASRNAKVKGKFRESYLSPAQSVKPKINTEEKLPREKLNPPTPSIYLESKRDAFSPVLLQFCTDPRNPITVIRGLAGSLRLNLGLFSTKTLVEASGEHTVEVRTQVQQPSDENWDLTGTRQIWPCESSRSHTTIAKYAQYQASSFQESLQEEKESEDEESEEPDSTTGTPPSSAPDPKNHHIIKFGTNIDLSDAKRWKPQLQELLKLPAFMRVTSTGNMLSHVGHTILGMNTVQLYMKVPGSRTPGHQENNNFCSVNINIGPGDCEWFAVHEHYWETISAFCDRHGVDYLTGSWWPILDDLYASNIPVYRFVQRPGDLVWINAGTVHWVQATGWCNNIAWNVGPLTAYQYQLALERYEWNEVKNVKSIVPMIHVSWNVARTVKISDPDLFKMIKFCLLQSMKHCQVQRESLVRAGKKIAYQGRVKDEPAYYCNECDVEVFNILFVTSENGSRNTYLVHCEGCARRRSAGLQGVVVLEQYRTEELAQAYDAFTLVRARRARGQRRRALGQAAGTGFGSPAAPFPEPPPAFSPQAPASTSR
Compound,IC50 (JMJD2C; [1]),IC50 (JMJD2C; [2]),IC50 (JMJD3)
"O=C(O)c1ccncc1NC[C@@H]1CCOc2cc(C3CCCCC3)ccc21 [Example 35, 3-({[(4R)-7-cyclohexyl-3,4-dihydro-2H-1-benzopyran-4-yl]methyl}amino)pyridine-4-carboxylic Acid]",100 to 1000 nM,–,–
"O=C(O)c1ccncc1NC[C@H]1CCOc2cc(-c3ccccc3)ccc21 [Example 83 of U.S. Pat. No. 8,952,151, 3-({[(4S)-7-phenyl-3,4-dihydro-2H-1-benzopyran-4-yl]methyl}amino)pyridine-4-carboxylic acid]",–,950 nM,19 nM
"O=C(O)c1ccncc1NC[C@@H]1CCOc2cc(-c3ccccc3)ccc21 [Example 84 of U.S. Pat. No. 8,952,151, 3-({[(4R)-7-phenyl-3,4-dihydro-2H-1-benzopyran-4-yl]methyl}amino)pyridine-4-carboxylic acid]",–,150 nM,2150 nM

# Now from value to compound:
IC50 (JMJD2C; [1]),IC50 (JMJD2C; [2]),IC50 (JMJD3),Compound
100 to 1000 nM,–,–,"C[C@@H](O)c1ccc(N(C)c2ccc3c(c2)CCC[C@H]3CNc2cnccc2C(=O)O)cc1 (single isomer, unassigned) [Example 168]"
100 to 1000 nM,–,–,"C[C@H](O)c1ccc(N(C)c2ccc3c(c2)CCC[C@H]3CNc2cnccc2C(=O)O)cc1 (single isomer, unassigned) [Example 169]"
